This passage reports GI50 and TGI results from PubChem BioAssay (NCI).

The structures appear in SMILES notation. “And” between values parts separate entries of the source, which are not always exact repeats. Equal entries are not always repeated.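 How tested: cells in 96-well plates exposed to compound for 48 hours at five concentrations. GI50 = concentration required for 50% inhibition of growth. At the TGI there is no net growth.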

Some test systems named below: HCC-2998 colon; K-562 leukemia; OVCAR-3 ovarian; SNB-75 CNS; HS 578T breast; LOX IMVI melanoma; CCRF-CEM leukemia; SK-MEL-2 melanoma; ACHN renal; RPMI-8226 leukemia.
Common to all, as to assay: NCI tumour cell line growth inhibition, 48 h

As for `CC(C)[C@@]12C[C@@H](OC(=O)[C@H]3CO3)[C@@](C)(O1)[C@@H]1CC[C@@H](C)[C@H]1[C@@H]2OC(=O)/C=C/c1ccccc1`, the GI50 in the experiment on HCC-2998 colon is 17.8 µM; with K-562 leukemia it was 18.5 µM; with OVCAR-3 ovarian, 12.3 µM; in the experiment on SNB-75 CNS, 2.72 µM; in the experiment with HS 578T breast, 0.0736 µM; in the experiment with LOX IMVI melanoma it was 12.6 µM. Besides, the GI50 with CCRF-CEM leukemia was 18 µM; in the experiment on SK-MEL-2 melanoma, 16.7 µM; in the experiment on ACHN renal, 0.108 µM; in the experiment with RPMI-8226 leukemia, 13.5 µM. The TGI in the experiment with HCC-2998 colon was 41.5 µM; with K-562 leukemia, greater than 100 µM; in the experiment on OVCAR-3 ovarian, 30.8 µM; with SNB-75 CNS, 29.7 µM; in the experiment with HS 578T breast it was 0.501 µM; in the experiment with LOX IMVI melanoma it was 46.3 µM. In addition, the TGI in the experiment with CCRF-CEM leukemia was greater than 84.7 µM; in the experiment with SK-MEL-2 melanoma it was 47.7 µM; in the experiment with ACHN renal it was 3.07 µM; in the experiment with RPMI-8226 leukemia it was 68.2 µM.

`COc1cccc(C2C(C#N)=C(N)Oc3cc(N)ccc32)c1` (stereo not drawn): the GI50 in the experiment with HCC-2998 colon was 0.82 µM; in the experiment with K-562 leukemia, 0.396 µM; in the experiment with OVCAR-3 ovarian it was 0.337 µM; with SNB-75 CNS it was 0.293 µM; in the experiment with HS 578T breast, 0.314 µM; with LOX IMVI melanoma, 0.506 µM. For the same compound, the GI50 was 0.32 µM in the experiment on CCRF-CEM leukemia, 0.397 µM with SK-MEL-2 melanoma, 0.762 µM in the experiment on ACHN renal and 0.412 µM with RPMI-8226 leukemia. In addition, the TGI with HCC-2998 colon was greater than 100 µM; in the experiment on K-562 leukemia, greater than 100 µM; in the experiment with OVCAR-3 ovarian, 1.03 µM; in the experiment on SNB-75 CNS, greater than 100 µM; in the experiment on HS 578T breast, greater than 100 µM; in the experiment with LOX IMVI melanoma, greater than 100 µM. The values for the TGI with SK-MEL-2 melanoma, in the experiment on ACHN renal and with RPMI-8226 leukemia were greater than 100 µM, greater than 100 µM and greater than 69 µM, respectively.

As for `CC(C)(C)[Si](C)(C)OCC1OC(n2cnc3c(NC(=O)c4ccccc4)ncnc32)CC1O` (stereo not drawn), the TGI with HCC-2998 colon was found to be 88.6 µM; with K-562 leukemia, 48.2 µM; in the experiment with OVCAR-3 ovarian, 81.1 µM; with SNB-75 CNS, 60.3 µM; with HS 578T breast, 45.8 µM; in the experiment on LOX IMVI melanoma it was 33.9 µM. The TGI in the experiment on CCRF-CEM leukemia turned out to be 53.4 µM; in the experiment on SK-MEL-2 melanoma it was 57.9 µM; in the experiment with ACHN renal, 95.4 µM; in the experiment on RPMI-8226 leukemia, 47 µM.

`CC(=O)N1CC(Nc2ccc(OC(F)(F)F)cc2)=CC1=O`: the GI50 was 3.22 µM in the experiment with HCC-2998 colon; 0.526 µM with K-562 leukemia; 1.19 µM in the experiment on OVCAR-3 ovarian; 1.59 µM in the experiment with SNB-75 CNS; 3.11 µM in the experiment on HS 578T breast; 2.32 µM with LOX IMVI melanoma. In addition, the GI50 in the experiment on CCRF-CEM leukemia is 2.52 µM; in the experiment with SK-MEL-2 melanoma, 0.52 µM; in the experiment on ACHN renal, 8.27 µM; in the experiment on RPMI-8226 leukemia, 2.67 µM. The TGI is 53.2 µM in the experiment on HCC-2998 colon; greater than 100 µM with K-562 leukemia; 4.03 µM in the experiment with OVCAR-3 ovarian; 7.59 µM with SNB-75 CNS; greater than 100 µM in the experiment on HS 578T breast; greater than 100 µM in the experiment with LOX IMVI melanoma. The TGI is greater than 100 µM in the experiment on CCRF-CEM leukemia, 95.9 µM in the experiment with SK-MEL-2 melanoma, greater than 100 µM in the experiment on ACHN renal and greater than 100 µM in the experiment with RPMI-8226 leukemia.

For the compound `CC1/C=C/C=C/C=C/C=C/C=C/C=C/C=C/C(O[C@@H]2O[C@H](C)[C@H](O)[C@@H](O)[C@@H]2N)CC(O)C(C(=O)O)C(O)CC(=O)CC(O)CC(O)CC(O)CC(=O)CCCC(=O)CC(=O)OC1C(C)CC(C)C(O)CC(=O)c1ccc(N)cc1` (stereo partly drawn), the GI50 in the experiment on HCC-2998 colon was 0.058 µM and 0.302 µM; with K-562 leukemia it was 0.0716 µM; in the experiment on OVCAR-3 ovarian, 0.0631 µM and 0.374 µM; with SNB-75 CNS, 0.0596 µM and 0.242 µM; in the experiment on HS 578T breast, 0.0765 µM and 0.329 µM; in the experiment on LOX IMVI melanoma, 0.0555 µM and 0.166 µM. Besides, the GI50 was 0.0627 µM and 0.206 µM with CCRF-CEM leukemia; 0.267 µM in the experiment with SK-MEL-2 melanoma; 0.057 µM and 0.18 µM in the experiment on ACHN renal; 0.0748 µM and 0.238 µM with RPMI-8226 leukemia. The TGI was 0.104 µM and 1.03 µM in the experiment on HCC-2998 colon; 0.175 µM in the experiment with K-562 leukemia; 0.12 µM and 0.787 µM in the experiment with SNB-75 CNS; 0.211 µM and 1.58 µM with HS 578T breast; 0.101 µM and 0.305 µM in the experiment with LOX IMVI melanoma; 0.141 µM and 0.489 µM in the experiment with CCRF-CEM leukemia. The TGI in the experiment with SK-MEL-2 melanoma was 0.813 µM; in the experiment on ACHN renal, 0.106 µM and 0.319 µM; in the experiment with RPMI-8226 leukemia it was 0.171 µM and 0.682 µM.

Turning to `Cc1cc2cc3cc(C)c(N(C)C)cc3nc2cc1N(C)C`, the GI50 was 3.61 µM in the experiment with HCC-2998 colon; 4.79 µM in the experiment on K-562 leukemia; 2.54 µM in the experiment on OVCAR-3 ovarian; 2.35 µM in the experiment on SNB-75 CNS; 1.89 µM in the experiment on HS 578T breast; 3.33 µM in the experiment on LOX IMVI melanoma. The GI50 in the experiment on CCRF-CEM leukemia is 8.99 µM; in the experiment on SK-MEL-2 melanoma it was 4.02 µM; with ACHN renal, 4.76 µM; in the experiment on RPMI-8226 leukemia it was 4.16 µM. Moreover, the TGI with HCC-2998 colon was 14.6 µM; in the experiment on K-562 leukemia, greater than 100 µM; in the experiment on OVCAR-3 ovarian, 11.1 µM; in the experiment with SNB-75 CNS, 20.1 µM; in the experiment with HS 578T breast, 18.1 µM; in the experiment with LOX IMVI melanoma it was 78 µM. For the same compound, the TGI is greater than 100 µM in the experiment on CCRF-CEM leukemia, 75.7 µM in the experiment on SK-MEL-2 melanoma, greater than 100 µM with ACHN renal and greater than 100 µM in the experiment on RPMI-8226 leukemia.

With `C/C(=N\NC(=O)c1ccncc1)c1ccc2ccccc2c1O`, the TGI in the experiment with HCC-2998 colon is 53.8 µM; in the experiment on K-562 leukemia, greater than 100 µM; in the experiment on OVCAR-3 ovarian it was 3.59 µM; in the experiment with SNB-75 CNS, greater than 43.8 µM; in the experiment with HS 578T breast it was 98.1 µM; with LOX IMVI melanoma, greater than 100 µM. In addition, the TGI with CCRF-CEM leukemia was greater than 100 µM; in the experiment on SK-MEL-2 melanoma, greater than 100 µM; in the experiment with ACHN renal, greater than 100 µM; in the experiment with RPMI-8226 leukemia, greater than 64.4 µM.

In the case of `NC(N)=NS(=O)(=O)c1ccc(NCc2c3ccccc3nc3ccccc23)cc1`, the TGI in the experiment on HCC-2998 colon was 66.1 µM; with K-562 leukemia, greater than 93.6 µM; in the experiment with OVCAR-3 ovarian, 49.6 µM; in the experiment with SNB-75 CNS it was 9.02 µM; in the experiment with HS 578T breast, 28.6 µM; in the experiment on LOX IMVI melanoma it was 58 µM. For the same compound, the TGI in the experiment on CCRF-CEM leukemia was 9.03 µM; in the experiment with SK-MEL-2 melanoma, greater than 67 µM; with ACHN renal, 30.5 µM; in the experiment with RPMI-8226 leukemia, greater than 72.5 µM.

In the case of `CCNCC(=O)O[C@]1(CC)C(=O)OCc2c1cc1n(c2=O)Cc2cc3ccccc3nc2-1`, the TGI was 6.88 µM in the experiment with HCC-2998 colon; greater than 100 µM in the experiment with K-562 leukemia; 15.9 µM in the experiment with OVCAR-3 ovarian; 7.91 µM in the experiment with SNB-75 CNS; greater than 100 µM with HS 578T breast; 1.22 µM with LOX IMVI melanoma. In addition, the TGI in the experiment on CCRF-CEM leukemia was 0.418 µM; in the experiment on SK-MEL-2 melanoma it was 7.92 µM; in the experiment with ACHN renal, 1.98 µM; in the experiment with RPMI-8226 leukemia it was 4.07 µM.
